Blank lines part the entries; values can stand above or below the compound they belong to.
What was measured:
Assay in all cases: Competitive isoTOP-ABPP in situ (fragment-treated cells)
Format in all cases: cell-based
[1] = target: T1, cysteines in MDA-MB-231 and Ramos cells (Homo sapiens, UniProt P51649)
T1 sequence (P51649 48-535): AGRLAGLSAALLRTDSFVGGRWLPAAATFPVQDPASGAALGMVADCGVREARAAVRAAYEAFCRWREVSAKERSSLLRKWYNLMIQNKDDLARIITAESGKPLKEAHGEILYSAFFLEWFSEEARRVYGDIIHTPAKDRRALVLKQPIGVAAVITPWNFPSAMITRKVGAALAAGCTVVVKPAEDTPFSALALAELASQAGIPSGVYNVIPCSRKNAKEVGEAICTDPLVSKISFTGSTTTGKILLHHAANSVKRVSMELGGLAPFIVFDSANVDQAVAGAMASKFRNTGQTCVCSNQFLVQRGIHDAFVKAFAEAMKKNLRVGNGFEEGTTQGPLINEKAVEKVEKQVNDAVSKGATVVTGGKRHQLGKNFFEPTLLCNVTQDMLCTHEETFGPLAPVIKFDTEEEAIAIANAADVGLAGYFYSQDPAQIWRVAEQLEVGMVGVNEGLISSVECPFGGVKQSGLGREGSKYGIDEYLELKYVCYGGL

[2] = target: T2, cysteines in MDA-MB-231 and Ramos cells (Homo sapiens, UniProt Q9NP73)
T2 sequence (Q9NP73 1-1137): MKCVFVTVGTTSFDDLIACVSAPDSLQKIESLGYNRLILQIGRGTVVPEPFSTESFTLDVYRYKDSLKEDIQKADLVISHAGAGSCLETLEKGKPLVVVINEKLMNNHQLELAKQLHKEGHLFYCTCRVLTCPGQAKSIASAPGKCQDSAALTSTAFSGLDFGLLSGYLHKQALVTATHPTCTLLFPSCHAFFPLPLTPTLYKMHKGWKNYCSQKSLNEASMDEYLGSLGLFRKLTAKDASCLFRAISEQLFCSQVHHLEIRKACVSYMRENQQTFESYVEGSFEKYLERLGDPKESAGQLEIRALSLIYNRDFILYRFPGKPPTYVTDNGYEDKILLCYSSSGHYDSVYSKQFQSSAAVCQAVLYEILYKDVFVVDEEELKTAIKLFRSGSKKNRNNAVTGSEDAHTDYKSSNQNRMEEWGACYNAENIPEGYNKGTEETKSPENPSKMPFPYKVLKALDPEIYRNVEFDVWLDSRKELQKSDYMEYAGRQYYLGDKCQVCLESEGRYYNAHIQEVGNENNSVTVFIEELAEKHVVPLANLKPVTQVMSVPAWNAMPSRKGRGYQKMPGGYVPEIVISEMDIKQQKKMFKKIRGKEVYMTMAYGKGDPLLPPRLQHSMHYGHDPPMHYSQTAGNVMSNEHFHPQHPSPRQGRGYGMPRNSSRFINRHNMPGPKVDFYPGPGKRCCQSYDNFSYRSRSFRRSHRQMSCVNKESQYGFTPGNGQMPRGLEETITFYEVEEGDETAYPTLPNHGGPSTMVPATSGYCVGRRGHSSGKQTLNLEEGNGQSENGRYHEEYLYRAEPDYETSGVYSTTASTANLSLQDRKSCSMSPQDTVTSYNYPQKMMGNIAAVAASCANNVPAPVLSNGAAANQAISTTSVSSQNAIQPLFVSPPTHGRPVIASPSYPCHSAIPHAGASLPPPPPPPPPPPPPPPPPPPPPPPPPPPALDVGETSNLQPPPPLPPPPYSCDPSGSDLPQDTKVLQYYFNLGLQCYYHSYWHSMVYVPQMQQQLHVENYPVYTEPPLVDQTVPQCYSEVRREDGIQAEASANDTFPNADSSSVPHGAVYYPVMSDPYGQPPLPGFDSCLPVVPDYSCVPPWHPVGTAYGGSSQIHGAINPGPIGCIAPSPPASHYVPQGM

[3] = target: T3, cysteines in MDA-MB-231 and Ramos cells (Homo sapiens, UniProt Q9Y570)
T3 sequence (Q9Y570 1-386): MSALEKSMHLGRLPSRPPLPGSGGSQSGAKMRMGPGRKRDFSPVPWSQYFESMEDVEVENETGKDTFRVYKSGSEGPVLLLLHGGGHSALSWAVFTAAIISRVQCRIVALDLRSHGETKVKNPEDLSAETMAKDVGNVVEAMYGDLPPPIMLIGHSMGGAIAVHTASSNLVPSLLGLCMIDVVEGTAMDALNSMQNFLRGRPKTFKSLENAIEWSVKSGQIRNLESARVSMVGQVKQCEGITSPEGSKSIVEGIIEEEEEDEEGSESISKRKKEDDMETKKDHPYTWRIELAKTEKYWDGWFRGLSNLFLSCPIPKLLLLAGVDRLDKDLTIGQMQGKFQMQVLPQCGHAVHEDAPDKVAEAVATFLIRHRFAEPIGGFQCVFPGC

[4] = target: cysteines in MDA-MB-231 and Ramos cells (Homo sapiens, UniProt P22061)
[5] = target: T4, cysteines in MDA-MB-231 and Ramos cells (Homo sapiens, UniProt P53384)
T4 sequence (P53384 1-320): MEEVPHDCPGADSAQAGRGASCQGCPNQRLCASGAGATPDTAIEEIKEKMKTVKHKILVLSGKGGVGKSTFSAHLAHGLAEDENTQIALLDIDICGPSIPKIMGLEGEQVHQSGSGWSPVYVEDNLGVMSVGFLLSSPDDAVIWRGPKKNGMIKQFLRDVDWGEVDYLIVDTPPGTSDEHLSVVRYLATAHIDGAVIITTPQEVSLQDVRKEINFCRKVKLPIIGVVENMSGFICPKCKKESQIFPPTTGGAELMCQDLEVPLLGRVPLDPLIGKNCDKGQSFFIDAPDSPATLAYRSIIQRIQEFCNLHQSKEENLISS

[6] = target: T5, cysteines in MDA-MB-231 and Ramos cells (Homo sapiens, UniProt Q86X76)
T5 sequence (Q86X76 14-327): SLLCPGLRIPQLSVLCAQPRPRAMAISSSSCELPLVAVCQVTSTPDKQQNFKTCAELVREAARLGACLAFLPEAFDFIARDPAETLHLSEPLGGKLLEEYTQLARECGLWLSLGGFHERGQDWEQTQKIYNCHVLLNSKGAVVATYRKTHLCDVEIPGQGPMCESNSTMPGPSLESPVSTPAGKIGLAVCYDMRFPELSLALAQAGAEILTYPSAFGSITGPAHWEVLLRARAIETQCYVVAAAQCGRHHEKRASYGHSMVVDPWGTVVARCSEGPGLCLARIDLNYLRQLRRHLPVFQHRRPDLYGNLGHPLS

[7] = target: cysteines in MDA-MB-231 and Ramos cells (Homo sapiens, UniProt P52948); details: 200 μM, insitu, 231
Sequence of cysteines in MDA-MB-231 and Ramos cells (Homo sapiens, UniProt P52948) (P52948 whole entry): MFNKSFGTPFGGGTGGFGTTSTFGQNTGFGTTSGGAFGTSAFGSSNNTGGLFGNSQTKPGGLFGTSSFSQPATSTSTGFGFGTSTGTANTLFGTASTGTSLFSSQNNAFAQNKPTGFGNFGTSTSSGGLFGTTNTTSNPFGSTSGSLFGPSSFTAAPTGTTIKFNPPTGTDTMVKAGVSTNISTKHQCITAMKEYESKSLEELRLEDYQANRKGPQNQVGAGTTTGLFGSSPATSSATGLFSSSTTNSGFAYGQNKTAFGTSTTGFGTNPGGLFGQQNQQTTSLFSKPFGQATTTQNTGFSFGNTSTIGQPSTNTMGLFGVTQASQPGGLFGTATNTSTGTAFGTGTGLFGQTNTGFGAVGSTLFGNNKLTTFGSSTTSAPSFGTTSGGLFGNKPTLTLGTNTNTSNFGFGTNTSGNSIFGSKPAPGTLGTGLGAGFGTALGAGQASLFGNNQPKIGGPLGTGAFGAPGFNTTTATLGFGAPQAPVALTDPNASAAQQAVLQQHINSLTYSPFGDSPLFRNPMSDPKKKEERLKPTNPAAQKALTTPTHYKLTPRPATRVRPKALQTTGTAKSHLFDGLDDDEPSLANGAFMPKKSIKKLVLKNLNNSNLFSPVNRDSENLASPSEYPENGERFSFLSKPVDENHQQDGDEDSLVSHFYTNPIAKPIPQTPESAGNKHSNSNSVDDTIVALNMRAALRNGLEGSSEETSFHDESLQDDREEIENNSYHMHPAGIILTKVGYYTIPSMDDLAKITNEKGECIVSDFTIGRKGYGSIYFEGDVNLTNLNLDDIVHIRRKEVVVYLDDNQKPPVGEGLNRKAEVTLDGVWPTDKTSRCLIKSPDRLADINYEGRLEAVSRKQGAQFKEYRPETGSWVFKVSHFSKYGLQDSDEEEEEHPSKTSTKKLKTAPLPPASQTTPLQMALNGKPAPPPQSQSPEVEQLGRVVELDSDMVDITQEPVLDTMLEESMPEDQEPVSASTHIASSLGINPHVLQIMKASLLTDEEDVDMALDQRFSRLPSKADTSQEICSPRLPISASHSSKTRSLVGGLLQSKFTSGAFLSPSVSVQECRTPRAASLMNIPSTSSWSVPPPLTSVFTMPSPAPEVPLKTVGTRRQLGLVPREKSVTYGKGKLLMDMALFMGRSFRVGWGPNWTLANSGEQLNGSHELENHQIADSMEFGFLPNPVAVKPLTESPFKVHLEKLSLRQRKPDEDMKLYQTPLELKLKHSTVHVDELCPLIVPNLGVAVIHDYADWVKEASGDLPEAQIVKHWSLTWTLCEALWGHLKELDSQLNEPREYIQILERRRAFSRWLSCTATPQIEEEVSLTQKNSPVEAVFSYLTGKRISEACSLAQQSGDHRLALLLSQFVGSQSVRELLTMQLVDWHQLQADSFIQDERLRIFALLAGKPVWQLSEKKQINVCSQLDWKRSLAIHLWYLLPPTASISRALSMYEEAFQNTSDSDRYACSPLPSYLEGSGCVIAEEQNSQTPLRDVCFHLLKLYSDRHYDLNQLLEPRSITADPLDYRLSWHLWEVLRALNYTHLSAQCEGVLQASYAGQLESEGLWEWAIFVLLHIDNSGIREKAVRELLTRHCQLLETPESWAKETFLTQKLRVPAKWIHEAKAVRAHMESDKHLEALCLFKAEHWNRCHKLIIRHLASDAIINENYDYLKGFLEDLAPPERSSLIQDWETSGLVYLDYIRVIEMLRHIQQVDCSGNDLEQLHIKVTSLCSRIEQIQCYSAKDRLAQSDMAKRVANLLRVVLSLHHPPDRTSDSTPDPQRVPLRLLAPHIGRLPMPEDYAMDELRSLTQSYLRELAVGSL

Sequence of cysteines in MDA-MB-231 and Ramos cells (Homo sapiens, UniProt P22061) (P22061 whole entry): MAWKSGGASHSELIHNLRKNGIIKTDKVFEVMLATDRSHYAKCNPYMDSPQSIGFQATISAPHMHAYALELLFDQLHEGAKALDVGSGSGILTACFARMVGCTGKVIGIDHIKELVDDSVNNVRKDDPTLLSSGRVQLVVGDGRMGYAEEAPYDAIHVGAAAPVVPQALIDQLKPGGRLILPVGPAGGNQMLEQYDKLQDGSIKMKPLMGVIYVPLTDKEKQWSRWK

Structure (SMILES): COc1ccc2c(c1)CCCN2C(=O)CCl [compound 2]
isoTOP-ABPP reactivity P51649_C340 ALDH5A1 ([1]; 200 μM, insitu, 231): 1.9
isoTOP-ABPP reactivity Q9NP73_C86 ALG13 ([2]; 200 μM, insitu, 231): 20.0
isoTOP-ABPP reactivity Q9Y570_C381 PPME1 ([3]; 200 μM, insitu, 231): 12.6

Structure (SMILES): COc1ccc(C2CC(c3cccs3)=NN2C(=O)CCl)cc1 (stereo not drawn) [compound 4]
isoTOP-ABPP reactivity P22061_C102 PCMT1 ([4]; 100 μM in situ 231): 2.8
isoTOP-ABPP reactivity P51649_C340 ALDH5A1 ([1]; 100 μM in situ 231): 1.0
isoTOP-ABPP reactivity P53384_C235 NUBP1 ([5]; 100 μM in situ 231): 0.6
isoTOP-ABPP reactivity Q86X76_C203 NIT1 ([6]; 100 μM in situ 231): 0.7
isoTOP-ABPP reactivity Q9NP73_C86 ALG13 ([2]; 100 μM in situ 231): 20.0
isoTOP-ABPP reactivity Q9Y570_C381 PPME1 ([3]; 100 μM in situ 231): 1.1

Structure (SMILES): COc1cc2c(cc1OC)CN(C(=O)CCl)CC2 [compound 8]
isoTOP-ABPP reactivity P22061_C102 PCMT1 ([4]; 200 μM, insitu, 231): 4.5
isoTOP-ABPP reactivity P51649_C340 ALDH5A1 ([1]; 200 μM, insitu, 231): 2.7
isoTOP-ABPP reactivity P53384_C235 NUBP1 ([5]; 200 μM, insitu, 231): 0.6

Structure (SMILES): O=C(CCl)N1CCC(Cc2ccccc2)CC1 [compound 9]
isoTOP-ABPP reactivity P22061_C102 PCMT1 ([4]; 200 μM, insitu, 231): 1.2
isoTOP-ABPP reactivity P53384_C235 NUBP1 ([5]; 200 μM, insitu, 231): 6.8
isoTOP-ABPP reactivity Q9Y570_C381 PPME1 ([3]; 200 μM, insitu, 231): 20.0

Structure (SMILES): O=C(CCl)N1CCN(S(=O)(=O)c2ccccc2F)CC1 [compound 10]
isoTOP-ABPP ratio P22061_C102 ([4]; 200 μM, insitu, 231): 1.6
isoTOP-ABPP ratio P51649_C340 ([1]; 200 μM, insitu, 231): 13.4
isoTOP-ABPP ratio P51649_C340 ([1]; 200 μM, insitu, ramos): 20.0
isoTOP-ABPP ratio, cysteine P52948_C1312 [7]: 20.0
isoTOP-ABPP ratio, cysteine Q9Y570_C381 ([3]; 200 μM, insitu, 231): 4.7

Structure (SMILES): Cn1cc(S(=O)(=O)N2CCOCC2)cc1C(=O)NC(=O)CCl [compound 11]
isoTOP-ABPP ratio P22061_C102 ([4]; 100 μM in situ 231): 0.8
isoTOP-ABPP ratio, cysteine Q86X76_C203 ([6]; 100 μM in situ 231): 0.8
isoTOP-ABPP ratio Q9NP73_C86 ([2]; 100 μM in situ 231): 0.7

Structure (SMILES): O=C(CCl)NC(=O)NC12CC3CC(CC(C3)C1)C2 [compound 12]
isoTOP-ABPP ratio P22061_C102 ([4]; 200 μM, insitu, 231): 5.8
isoTOP-ABPP ratio P51649_C340 ([1]; 200 μM, insitu, 231): 20.0
isoTOP-ABPP ratio, cysteine P52948_C1312 [7]: 20.0
isoTOP-ABPP ratio, cysteine P53384_C235 ([5]; 200 μM, insitu, 231): 0.5
isoTOP-ABPP ratio, cysteine Q86X76_C203 ([6]; 200 μM, insitu, 231): 3.9

Structure (SMILES): O=C(CCl)NCCc1c[nH]c2ccccc12 [compound 13]
isoTOP-ABPP ratio P22061_C102 ([4]; 200 μM, insitu, 231): 0.9
isoTOP-ABPP ratio P51649_C340 ([1]; 200 μM, insitu, 231): 1.1
isoTOP-ABPP ratio P51649_C340 ([1]; 200 μM, insitu, ramos): 1.3
isoTOP-ABPP ratio, cysteine P52948_C1312 [7]: 1.2
isoTOP-ABPP ratio Q9NP73_C86 ([2]; 200 μM, insitu, 231): 0.9
isoTOP-ABPP ratio Q9NP73_C86 ([2]; 200 μM, insitu, ramos): 1.4
isoTOP-ABPP ratio, cysteine Q9Y570_C381 ([3]; 200 μM, insitu, 231): 0.9

Structure (SMILES): O=C(CCl)NC12CC3CC(CC(C3)C1)C2 [compound 21]
isoTOP-ABPP ratio P51649_C340 ([1]; 200 μM, insitu, 231): 1.2
isoTOP-ABPP ratio, cysteine P52948_C1312 [7]: 1.1
isoTOP-ABPP ratio, cysteine Q86X76_C203 ([6]; 200 μM, insitu, 231): 0.8

Continued, values first:

isoTOP-ABPP ratio P22061_ ([4]; 200 μM, insitu, 231): 2.2
isoTOP-ABPP ratio P51649_C340 ([1]; 200 μM, insitu, 231): 0.9
isoTOP-ABPP ratio P52948_C1312 [7]: 1.3
isoTOP-ABPP ratio Q9NP73_C86 ([2]; 200 μM, insitu, 231): 0.4
Structure (SMILES): CC(C)CCOCCNC(=O)CCl [compound 27]

isoTOP-ABPP ratio P22061_ ([4]; 200 μM, insitu, ramos): 1.2
isoTOP-ABPP ratio P51649_C340 ([1]; 200 μM, insitu, ramos): 1.0
isoTOP-ABPP ratio Q9NP73_C86 ([2]; 200 μM, insitu, ramos): 2.0
isoTOP-ABPP ratio Q9Y570_C381 ([3]; 200 μM, insitu, ramos): 1.2
Structure (SMILES): O=C(CCl)N1CCN(CC(=O)N2CCOCC2)CC1 [compound 29]

isoTOP-ABPP ratio P51649_C340 ([1]; 200 μM, insitu, ramos): 1.0
isoTOP-ABPP ratio P53384_C235 ([5]; 200 μM, insitu, 231): 0.7
Structure (SMILES): C=CC(=O)N(Cc1cccnc1)c1cc(C(F)(F)F)cc(C(F)(F)F)c1 [compound 31]

isoTOP-ABPP ratio P52948_C1312 [7]: 1.3
isoTOP-ABPP ratio P53384_C235 ([5]; 200 μM, insitu, 231): 2.0
isoTOP-ABPP ratio Q9NP73_C86 ([2]; 200 μM, insitu, 231): 1.3
Structure (SMILES): C=CC(=O)Nc1cc(F)c(N2CCN(C(=O)OC(C)(C)C)CC2)c(F)c1 [compound 38]

isoTOP-ABPP ratio P22061_ ([4]; 200 μM, insitu, 231): 0.7
isoTOP-ABPP ratio P53384_C235 ([5]; 200 μM, insitu, 231): 0.2
isoTOP-ABPP ratio Q86X76_C203 ([6]; 200 μM, insitu, 231): 1.3
isoTOP-ABPP ratio Q9NP73_C86 ([2]; 200 μM, insitu, 231): 0.5
isoTOP-ABPP ratio Q9Y570_C381 ([3]; 200 μM, insitu, 231): 0.2
Structure (SMILES): Cc1ccc(C=C(C#N)C(=O)NCCN2CCOCC2)cc1 [compound 41]

isoTOP-ABPP ratio P51649_C340 ([1]; 200 μM, insitu, 231): 2.4
isoTOP-ABPP ratio Q86X76_C203 ([6]; 200 μM, insitu, 231): 20.0
isoTOP-ABPP ratio Q9NP73_C86 ([2]; 200 μM, insitu, 231): 20.0
Structure (SMILES): CC1CCc2ccccc2N1C(=O)CCl (stereo not drawn) [compound 45]

isoTOP-ABPP ratio Q9NP73_C86 ([2]; 200 μM, insitu, 231): 1.3
Structure (SMILES): O=C(CCl)Nc1cccc2ncccc12 [compound 51]
